Measurements as given in patent publication US9765069B2, “Antimicrobial compounds” (OXFORD UNIVERSITY INNOVATION LIMITED, priority 2012, dated 2017).
≈ marks a conversion by molar mass, not a printed value.

Experiments:
H3 = test: MIC determination (bacteria), strain H3; assay type: cell-based, H. influenzae; conditions: haemophilus test medium
Method: (§1) MIC determination (bacteria); MICs were determined based on Clinical and Laboratory Standards Institute (CLSI) methodology (Methods for dilution antimicrobial susceptibility tests for bacteria that grow aerobically; Approved Standard—seventh edition. 2006, M7-A7, CLSI, Wayne Pa.) by a 2-fold broth dilution technique in Mueller Hinton (pH7.4 Biorad). For S. pneumoniae, the medium was supplemented with 2.5% laked horse blood. For H. influenzae, the medium was haemophilus test medium (H.T.M.). Overnight cultures were diluted to obtain the final inoculum of 10^5 cfu/well. Incubation was 37° C. overnight in ambient air. The MIC was defined as the lowest concentration which inhibited all visual growth and expressed in μg/ml. For each bacterial species, all of the molecules were tested in the same experiment in order to give a head-to-head comparison.

S4 = test: MIC determination (bacteria), strain S4; assay type: cell-based, S. aureus; conditions: 2-fold broth dilution
Method: as §1

P9 = test: MIC determination (bacteria), strain P9; assay type: cell-based, S. pneumoniae; conditions: 2-fold broth dilution
Method: as §1

S1 = test: MIC determination (bacteria), strain S1; assay type: cell-based, S. aureus; conditions: 2-fold broth dilution
Method: as §1

H4 = test: MIC determination (bacteria), strain H4; assay type: cell-based, H. influenzae; conditions: haemophilus test medium
Method: as §1

[1] = tested on: mammalian_red blood cell membrane; test: In vitro mammalian red blood cell membrane lysis activity; assay type: cell-based; conditions: Active or inactive at 100 μM
Source text: (§2) These properties can be determined according to techniques that are well known in the art.

[2] = tested on: S2 (S. aureus 2, MRSA in vivo); test: MIC determination (bacteria), strain S2; assay type: cell-based; conditions: 2-fold broth dilution
Method: as §1

[3] = tested on: human peripheral blood cells; test: in vitro toxicities human peripheral blood cells; assay type: cell-based; conditions: human peripheral blood cells
Source text: as §2

E1 = test: MIC determination (bacteria), strain E1; assay type: cell-based, enterococcus; conditions: 2-fold broth dilution
Method: as §1

P1 = test: MIC determination (bacteria), strain P1; assay type: cell-based, S. pneumoniae; conditions: 2-fold broth dilution
Method: as §1

S. aureus membrane = test: In vitro activity in depolarization of S. aureus membrane; assay type: cell-based; conditions: read-out: DEP (IC50)
Source text: as §2

[4] = tested on: human embryonic kidney 293 cells; test: in vitro toxicities against human embryonic kidney 293 cells; assay type: cell-based; conditions: human embryonic kidney 293 cells
Source text: as §2

E2 = test: MIC determination (bacteria), strain E2; assay type: cell-based, enterococcus; conditions: 2-fold broth dilution
Method: as §1

P9B = test: MIC determination (bacteria), strain P9B; assay type: cell-based, S. pneumoniae; conditions: 2-fold broth dilution
Method: as §1

S26 = test: MIC determination (bacteria), strain S26; assay type: cell-based, S. aureus; conditions: 2-fold broth dilution
Method: as §1

Structure (SMILES)	MIC H3 (H3; Table 1)	MIC S4 (S4; Table 1)	MIC P9 (P9; Table 1)	MIC S1 (S1; Table 1)	MIC S2 ([2]; Table 1)	MIC E1 (E1; Table 1)	MIC P1 (P1; Table 1)	MIC E2 (E2; Table 1)	MIC P9B (P9B; Table 1)	MIC H3 (H3; Table 2)	MIC S4 (S4; Table 2)	MIC P9 (P9; Table 2)	MIC S1 (S1; Table 2)	MIC H4 (H4; Table 2 and its footnote f)	MIC S2 ([2]; Table 2)	MIC E1 (E1; Table 2)	MIC P1 (P1; Table 2)	MIC E2 (E2; Table 2)	MIC P9B (P9B; Table 2)	MIC S26 (S26; Table 2)	further results
CCCCCCCC=CC(=O)N1C(=O)C(=C(O)CCC)C(=O)C1CC(C)C (centres unmarked) [23b]	>64 µg/mL	0.25 µg/mL (≈ 0.662 µM)	0.12 µg/mL (≈ 0.318 µM)	<0.06 µg/mL	0.25 µg/mL (≈ 0.662 µM)	0.25 µg/mL (≈ 0.662 µM)	0.25 µg/mL (≈ 0.662 µM)	<0.06 µg/mL	1 µg/mL (≈ 2.65 µM)												MIC H4 (H4; Table 1): 2 µg/mL (≈ 5.3 µM); RBC membrane lysis activity (active/inactive) [1]: Inactive^d; PMBC (LD50, μM) [3]: 90.9 µM; IC50 (S. aureus membrane): 49.5 µM; Hek293 (LD50, μM) [4]: 90.9 µM; MIC S26 (S26; Table 1): 0.5 µg/mL (≈ 1.32 µM)
CCCCCCCCCCCCCC(O)=C1C(=O)CCN(C(=O)c2ccccc2)C1=O [25c]	>64 µg/mL	1 µg/mL (≈ 2.34 µM)	1 µg/mL (≈ 2.34 µM)	2 µg/mL (≈ 4.68 µM)	2 µg/mL (≈ 4.68 µM)	2 µg/mL (≈ 4.68 µM)	1 µg/mL (≈ 2.34 µM)	1 µg/mL (≈ 2.34 µM)	8 µg/mL (≈ 18.7 µM)												MIC H4 (H4; Table 1): 32 µg/mL (≈ 74.8 µM); MIC S26 (S26; Table 1): 4 µg/mL (≈ 9.35 µM)
CCCCCCC(=O)N1CC(=O)C(=C(O)CC2CC3CCC2C3)C1=O (centres unmarked) [27a]										4 µg/mL (≈ 11.5 µM)	2 µg/mL (≈ 5.76 µM)	0.5 µg/mL (≈ 1.44 µM)	1 µg/mL (≈ 2.88 µM)	1 µg/mL (≈ 2.88 µM)	2 µg/mL (≈ 5.76 µM)	1 µg/mL (≈ 2.88 µM)	1 µg/mL (≈ 2.88 µM)	2 µg/mL (≈ 5.76 µM)	4 µg/mL (≈ 11.5 µM)	4 µg/mL (≈ 11.5 µM)	RBC membrane lysis activity (active/inactive) [1]: Inactive^d; PMBC (LD50, μM) [3]: 90.9 µM; IC50 (S. aureus membrane): > 100 µM; Hek293 (LD50, μM) [4]: 90.9 µM
CCCC(=O)N1CC(=O)C(=C(O)CCCCC2CCCCC2)C1=O [27o]										8 µg/mL (≈ 23.8 µM)	16 µg/mL (≈ 47.7 µM)	0.5 µg/mL (≈ 1.49 µM)	4 µg/mL (≈ 11.9 µM)	2 µg/mL (≈ 5.96 µM)	4 µg/mL (≈ 11.9 µM)	4 µg/mL (≈ 11.9 µM)	0.5 µg/mL (≈ 1.49 µM)	2 µg/mL (≈ 5.96 µM)	4 µg/mL (≈ 11.9 µM)	8 µg/mL (≈ 23.8 µM)	
O=C1CCN(C(=O)c2ccccc2)C(=O)C1=C(O)CCCCC1CCCCC1 [19c]										16 µg/mL (≈ 41.7 µM)	2 µg/mL (≈ 5.22 µM)	1 µg/mL (≈ 2.61 µM)	1 µg/mL (≈ 2.61 µM)	8 µg/mL (≈ 20.9 µM)	2 µg/mL (≈ 5.22 µM)	2 µg/mL (≈ 5.22 µM)	1 µg/mL (≈ 2.61 µM)	2 µg/mL (≈ 5.22 µM)	4 µg/mL (≈ 10.4 µM)	2 µg/mL (≈ 5.22 µM)	
CCCCCCCC=CC(=O)N1C(=O)C(=C(O)CCCCC)C(=O)C1CC(C)C (centres unmarked) [23c]	>64 µg/mL	0.5 µg/mL (≈ 1.23 µM)	<0.06 µg/mL	0.25 µg/mL (≈ 0.616 µM)	0.5 µg/mL (≈ 1.23 µM)	0.25 µg/mL (≈ 0.616 µM)	<0.06 µg/mL	0.12 µg/mL (≈ 0.296 µM)	2 µg/mL (≈ 4.93 µM)												RBC membrane lysis activity (active/inactive) [1]: Inactive^d; PMBC (LD50, μM) [3]: 30.3 µM; IC50 (S. aureus membrane): 19.6 µM; Hek293 (LD50, μM) [4]: 30.3 µM; MIC S26 (S26; Table 1): 0.5 µg/mL (≈ 1.23 µM)
CCCCCCC(=O)N1CC(=O)C(=C(O)CCCCc2ccccc2)C1=O [28b]										8 µg/mL (≈ 21.5 µM)	2 µg/mL (≈ 5.38 µM)	0.25 µg/mL (≈ 0.673 µM)	2 µg/mL (≈ 5.38 µM)	2 µg/mL (≈ 5.38 µM)	2 µg/mL (≈ 5.38 µM)	2 µg/mL (≈ 5.38 µM)	0.5 µg/mL (≈ 1.35 µM)	1 µg/mL (≈ 2.69 µM)	2 µg/mL (≈ 5.38 µM)	4 µg/mL (≈ 10.8 µM)	
CSCCC1C(=O)C(=C(O)CC23CC4CC(CC(C4)C2)C3)C(=O)N1C(C)=O (centres unmarked) [31d]										32 µg/mL (≈ 81.7 µM)	16 µg/mL (≈ 40.9 µM)	8 µg/mL (≈ 20.4 µM)	16 µg/mL (≈ 40.9 µM)	4 µg/mL (≈ 10.2 µM)	32 µg/mL (≈ 81.7 µM)	16 µg/mL (≈ 40.9 µM)	8 µg/mL (≈ 20.4 µM)	16 µg/mL (≈ 40.9 µM)	8 µg/mL (≈ 20.4 µM)	32 µg/mL (≈ 81.7 µM)	
CCCCCCCCCCC(O)=C1C(=O)C(CCSC)N(C(C)=O)C1=O (centres unmarked) [24a]	8 µg/mL (≈ 20.9 µM)	4 µg/mL (≈ 10.4 µM)	0.25 µg/mL (≈ 0.652 µM)	0.5 µg/mL (≈ 1.3 µM)	2 µg/mL (≈ 5.21 µM)	0.5 µg/mL (≈ 1.3 µM)	0.5 µg/mL (≈ 1.3 µM)	0.5 µg/mL (≈ 1.3 µM)	2 µg/mL (≈ 5.21 µM)												MIC H4 (H4; Table 1): 4 µg/mL (≈ 10.4 µM); MIC S26 (S26; Table 1): 8 µg/mL (≈ 20.9 µM)
